{"source": "patent US20100143241A1", "about": "“Method and apparatus for delivery of agents across the blood brain barrier” (priority 2008, published 2010)", "key": {"blood-brain barrier": {"test_system": "blood-brain barrier", "test": "T1-weighted MRI contrast enhancement of the mouse brain after BBB opening with microbubbles and unfocused ultrasound", "assay_type": "in vivo", "conditions": "for enhancement in CSF and brain parenchyma: Gd-DTPA 6.4 mmol/kg IP", "excerpt": "Magnetic resonance images were acquired of a live mouse using a 7.0 T magnetic resonance system developed for magnetic resonance microscopy. […] IV injection of gadopentetate dimeglumine a standard magnetic resonance contrast agent results in enhancement of the muscles (FIG. 2b) but the brain remains dark. […] However, application of the ultrasound energy with the combination of Definity and gadopentetate dimeglumine opens the blood-brain barrier allowing the gadopentetate dimeglumine to actively stain the brain. Note in FIG. 2d the signal from the actively stained brain is nearly 5× (i.e., 5 fold or 5 times) stronger than it is in the unstained brain in FIG. 2a.\nTo open the BBB, 30 microliters of perflutren lipid microspheres (activated Definity) were injected through a tail vein catheter and simultaneously the ultrasound pulse sequence was initiated. The ultrasound was applied for 3 minutes.\n(§1) To enhance the brain with MR contrast, Gd-DTPA (Magnevist, Bayer HealthCare Pharmaceuticals, Wayne, N.J.) was administered by intraperitoneal (IP) injection 10 minutes prior to BOMUS (FIG. 14b). […] The Gd-DTPA dose was 3.2, 6.4, or 9.5 mmol/kg, as noted later. After BOMUS, high-throughput MR images were acquired. Because Gd-DTPA is normally excluded by the BBB, opening of the BBB was indicated by contrast-enhancement on T1-weighted MRI.\nFor MRI, a 35 mm diameter quadrature transmit/receive volume coil (m2m Imaging Corp., Cleveland, Ohio) was used. The MR system was a 7 T horizontal bore magnet driven by a GE EXCITE console (General Electric Healthcare, Milwaukee, Wis.). MR images were acquired using either a high-throughput or high-resolution protocol. The high-throughput scan (3.2 minutes) used a 3D spoiled gradient recalled (SPGR) sequence with the following parameters: repetition time (TR)=25 ms; echo time (TE)=2 ms; flip angle (FA)=30 degrees; field of view (FOV)=20×20×12 mm; matrix=128×128×60; number of averages (NEX)=1. Data were acquired at a resolution of 156×156×200 micrometers.\nHigh-resolution images were acquired with a similar 51 minute SPGR protocol: TR=25 ms; TE=3-4 ms; FA=15-22 degrees; FOV=20×20×8 mm; matrix=384×384×80; NEX=4. Data were acquired at a resolution of 52×52×100 micrometers.\nTo determine if the combination of unfocused ultrasound and microbubbles could be used to globally open the BBB, this treatment was compared to a variety of control scenarios (FIG. 16). […] However, co-administration of ultrasound and microbubbles globally opens the BBB, allowing the Gd-DTPA to enhance the brain. Animals received Gd-DTPA 6.4 mmol/kg IP 10 minutes prior to treatment, and T1-weighted images (high-throughput protocol) were acquired 20 minutes after treatment (FIG. 14b)."}, "[1]": {"conditions": "in vivo; cited from earlier work"}, "mouse brain": {"test_system": "mouse brain", "test": "T1 estimation by spin echo MRI in mice given Gd-DTPA with or without BOMUS", "assay_type": "in vivo", "experimental": "as §1\nT1 measurements were performed by acquiring a series of 2D spin echo images with varying TRs: TR=200, 400, 800, 1600, 3200, 6400, or 12800 ms; TE=7 ms; BW=31.25; slice thickness=1 mm; FOV=20×20 mm; matrix=128×128. T1 over a region of interest (ROI) was estimated using a three-parameter non-linear fit of the data to the following equation: I=m(1−[…])+a, where I is the mean ROI intensity and TR is the repetition time. The three terms that were fit were m, a multiplicative constant; a, an additive constant; and T1.\nTo measure the change in relaxivity due to the Gd-DTPA, T1 was estimated in ROIs selected from the cortex, basal ganglia and muscle (FIG. 21). In the control animal receiving neither Gd-DTPA nor BOMUS, T1 values were long in the cortex (2.08 s), basal ganglia (1.97 s), and muscle (2.01 s). In the animal given only Gd-DTPA, the muscle T1 shortened dramatically (0.71 s); but T1 was only shortened modestly in the cortex (1.53 s) and basal ganglia (1.56 s) because the intact BBB excluded the Gd-DTPA. However, in the BOMUS-treated animal, Gd-DTPA not only shortened T1 in the muscle (0.80 s), but Gd-DTPA also crossed the BBB and dramatically shortened T1 in the cortex (0.50 s) and basal ganglia (0.50 s)."}, "[2]": {"conditions": "Gd-DTPA along with BOMUS, high-resolution SPGR, left anterior cortex"}, "[3]": {"conditions": "BOMUS-treated animal given Gd-DTPA"}, "[4]": {"conditions": "animal given only Gd-DTPA, no BOMUS, intact BBB"}}}
{"smiles": "CNC[C@H](O)[C@@H](O)[C@H](O)[C@H](O)CO.CNC[C@H](O)[C@@H](O)[C@H](O)[C@H](O)CO.O=C([O-])CN(CCN(CC(=O)[O-])CC(=O)O)CCN(CC(=O)[O-])CC(=O)O.[Gd+3]", "note": "[Gd-DTPA, gadopentetate dimeglumine]", "values": [{"measurement": "enhancement in CSF and brain parenchyma", "setting": "blood-brain barrier; both ultrasound and microbubbles simultaneously", "value": "dramatic enhancement in the CSF and brain parenchyma"}, {"measurement": "enhancement in CSF and brain parenchyma", "setting": "blood-brain barrier; no treatment, only ultrasound, or only microbubbles", "value": "no enhancement in the cerebrospinal fluid (CSF) or in the brain parenchyma"}, {"measurement": "increase in SNR over control mouse receiving no contrast agent", "setting": "blood-brain barrier; [2]", "value": 90, "unit": "%"}, {"measurement": "increase in SNR over mouse receiving only Gd-DTPA", "setting": "blood-brain barrier; [2]", "value": 63, "unit": "%"}, {"measurement": "time post-injection within which most of the enhancement occurs", "setting": "blood-brain barrier; IP injection, preliminary studies", "value": "10 to 15", "unit": "min"}, {"measurement": "wash-out of brain staining after BOMUS", "setting": "blood-brain barrier; time-course of T1-weighted signal, up to 27 hours after BOMUS", "value": "washes out within a day"}, {"measurement": "signal of actively stained brain relative to unstained brain", "setting": "blood-brain barrier; ultrasound with Definity and gadopentetate dimeglumine, 7.0 T, T1-weighted, FIG. 2", "value": "~5", "unit": "×"}, {"measurement": "half-life", "setting": "[1]", "value": 1.6, "unit": "h"}, {"measurement": "T1 in basal ganglia", "setting": "mouse brain; [3]", "value": 0.50, "unit": "s"}, {"measurement": "T1 in cortex", "setting": "mouse brain; [3]", "value": 0.50, "unit": "s"}, {"measurement": "T1 in muscle", "setting": "mouse brain; [3]", "value": 0.80, "unit": "s"}, {"measurement": "T1 of brain after active staining", "setting": "mouse brain; Gd-DTPA with BOMUS, reduced from approximately 2000 ms", "value": "~500", "unit": "ms"}, {"measurement": "T1 in muscle", "setting": "mouse brain; animal given only Gd-DTPA, no BOMUS", "value": 0.71, "unit": "s"}, {"measurement": "T1 in basal ganglia", "setting": "mouse brain; [4]", "value": 1.56, "unit": "s"}, {"measurement": "T1 in cortex", "setting": "mouse brain; [4]", "value": 1.53, "unit": "s"}]}
